From paper PMC10369496, “Cu(II) and Zn(II) Complexes of New 8-Hydroxyquinoline Schiff Bases: Investigating Their Structure, Solution Speciation, and Anticancer Potential” (Inorganic Chemistry, 2023)
“Also recorded” adds a separate entry of the source. Read-outs that look alike come from different tables or passages of the source.

Key:
[1] = Distribution coefficient, shake-flask n-octanol/buffered aqueous solution pH 7.40; assay type: physicochemical; conditions: n-octanol/water partitioning, pH 7.40, 25 °C; for logD at 3 h: n-octanol/buffered aqueous solution, pH 7.4, read-out: log D7.4
Protocol: The distribution coefficients (D7.4) of the compounds were determined by the shake-flask method in n-octanol/buffered aqueous solution at pH 7.40 (25.0 ± 0.2 °C). The ligand precursors and the complexes were dissolved in 10 mM HEPES presaturated with n-octanol. The aqueous solution and n-octanol (1:1 ratio) were gently mixed with a 360° vertical rotation (∼20 rpm) for 3 h; then, the samples were centrifuged at 3000 rpm for 5 min. Two phases were separated, and their UV–vis spectra were recorded. The D7.4 value was calculated as follows [drawing 1] 1

[2] = Thermodynamic solubility in water at pH 7.40; assay type: physicochemical; conditions: pH 7.40, 10 mM HEPES, 37 °C, 24 h incubation
Protocol: Thermodynamic solubility (S) of the free ligands and complexes was determined for the saturated solutions in water at pH 7.40 in 10 mM HEPES at 37.0 ± 0.2 °C. The concentration of the compounds was determined by UV–vis spectrophotometry using stock solutions with known concentrations dissolved in 100% DMSO, 50%, and 25% (v/v) DMSO/buffered aqueous solutions for the calibration.

[3] = tested on: human keratinocytes HaCaT; assay: MTT assay in nontumorigenic HaCaT cells; assay type: cell-based; conditions: for IC50: HaCaT, 48 h incubation, MTT colorimetric method; for Selectivity index (SI): IC50 HaCaT/IC50 A375
Protocol: (§1) Cell culture media and antibiotics were obtained from Gibco (Thermo Fisher Scientific). Human malignant melanoma A375 cells (ATCC CRL-1619TM) and human keratinocytes HaCaT (CLS 300493) were cultured in DMEM-Glutamax supplemented with 10% fetal bovine serum (FBS), hereafter designated as complete medium. For human keratinocytes, 100 IU/mL of penicillin and 100 μg/mL of streptomycin (Gibco, Thermo Fisher Scientific) were also used. The cell lines were kept at 37 °C with a 5% CO2 atmosphere. The maintenance of cell cultures was performed every 2–3 days until the cells reached a confluency of about 80%.
The MTT assay was used to assess cell viability in the presence of increasing concentrations of selected compounds. Briefly, HaCaT cells were plated at a concentration of 5 × 10^4 cells/mL in 96-well plates (200 μL/well) and cultured for 24 h in the culture conditions described above. Then, cells were incubated with free ligands and metal complexes at concentrations ranging from 5 to 30 μM. Negative controls were cells maintained in complete culture medium. The culture medium was discarded after 48 h, cells were washed with PBS (2 times), and then 50 μL of MTT at 0.5 mg/mL in incomplete medium was added to all wells. After 2–3 h of incubation period at 37 °C, 100 μL of DMSO was added to each well to solubilize the formazan crystals, and absorbance was measured at 570 nm using a microplate reader Model 680 (Bio-Rad, CA). Two independent experiments were carried out, with six replicates per condition.
(§2) GraphPad Prism8 (GraphPad Software, San Diego, CA) was used to analyze cell proliferation, and values were plotted and fit a standard log dose–response curve to generate IC50 values.

[4] = tested on: Human malignant melanoma A375 cells; assay: Antiproliferative activity in A375 cells, CellTiter-Glo 3D luminescent method; assay type: cell-based
Protocol: as §1
The CellTiter-Glo 3D kit (Promega) was used to assess the viability of the A375 cells in the presence or absence (negative control) of increasing concentrations of the free ligands and complexes. The kit detects adenosine triphosphate, which is proportional to the number of viable cells, therefore allowing the assessment of cell proliferation. First, A375 cells were plated at a concentration of 5 × 10^4 cells/mL in 96-well plates (200 μL/well) and cultured for 24 h in the culture conditions described above. Then, cells were incubated with the free ligands (1–100 μM), Zn(II) complexes (1 to 80 μM), and Cu(II) complexes (1–20 μM) in 96-well plates. After an incubation period of 48 h, 100 μL of each well was discarded. Then, 40 μL of CellTiter-Glo 3D reagent was added into each well and the contents were mixed vigorously for 15 min to induce cell lysis at room temperature. Finally, the luminescence was measured using a Varioskan Lux multimode plate reader (Thermo Scientific). Values presented are mean ± standard deviation (SD) of two independent biological experiments with 4 technical replicates per condition.
as §2

[5] = Stability in aqueous HEPES buffer (5% DMSO) by UV–vis; assay type: physicochemical; conditions: HEPES 10 mM pH 7.4 with 5% (v/v) DMSO; 100–135 μM; 24 h
Protocol: Stock solutions of each complex were freshly prepared in DMSO and diluted with HEPES buffer (10 mM, pH 7.4), ensuring that the organic solvent content was less than 5% (v/v). The samples were monitored by UV–vis absorption spectrophotometry for 6 consecutive hours, and a final measurement was done after 24 h.

A375 cells = assay: Guava ViaCount assay by flow cytometry; assay type: cell-based, human; conditions: A375, 48 h; Zn(L2)2 at 15 μM, Cu2(L2)4 at 12 μM
Protocol: For the Guava ViaCount assay, A375 cells were plated at a concentration of 8 × 10^4 cells/mL in 24-well plates (1 mL/well) and cultured for 24 h in the culture conditions described above.[23] Cells were then incubated with Zn(L2)2 and Cu2(L2)4 at concentrations of 15 and 12 μM, respectively. The positive control, dacarbazine (DTIC), was tested at 70 μM. Cells in the presence of complete culture medium constituted the negative control group. After an incubation period of 48 h, cell culture supernatants were collected, and adherent cells were detached using TrypLEExpress (Invitrogen). Detached cells were then added to supernatants, and the wells were washed using PBS with 2% FBS to recover any remaining cells. The recovered suspension was centrifuged for 5 min at 700 g. The supernatants were discarded, and cells were suspended in PBS with 2% FBS. Then, on a 96-well plate, 20 μL of cell suspension was incubated with 180 μL of Guava ViaCount reagent (Merck Millipore, Darmstadt, Germany) for 5 min at r.t. Using a Guava EasyCyte 5HT Flow cytometer (Guava Technologies, Inc., Hayward, CA), data were collected and analyzed with the ViaCount software module with an acquisition of 10,000 events per sample. GraphPad Prism8 was used to analyze cell proliferation (GraphPad Software, San Diego, CA). One experiment was carried out, with three replicates per condition.

[6] = target: T1, bovine serum albumin (BSA) (Bos taurus, UniProt P02769); assay: Fluorescence quenching titration of BSA; assay type: binding
T1 construct: bovine serum albumin (BSA) stock solutions of lyophilized protein
T1 sequence (P02769 25-607): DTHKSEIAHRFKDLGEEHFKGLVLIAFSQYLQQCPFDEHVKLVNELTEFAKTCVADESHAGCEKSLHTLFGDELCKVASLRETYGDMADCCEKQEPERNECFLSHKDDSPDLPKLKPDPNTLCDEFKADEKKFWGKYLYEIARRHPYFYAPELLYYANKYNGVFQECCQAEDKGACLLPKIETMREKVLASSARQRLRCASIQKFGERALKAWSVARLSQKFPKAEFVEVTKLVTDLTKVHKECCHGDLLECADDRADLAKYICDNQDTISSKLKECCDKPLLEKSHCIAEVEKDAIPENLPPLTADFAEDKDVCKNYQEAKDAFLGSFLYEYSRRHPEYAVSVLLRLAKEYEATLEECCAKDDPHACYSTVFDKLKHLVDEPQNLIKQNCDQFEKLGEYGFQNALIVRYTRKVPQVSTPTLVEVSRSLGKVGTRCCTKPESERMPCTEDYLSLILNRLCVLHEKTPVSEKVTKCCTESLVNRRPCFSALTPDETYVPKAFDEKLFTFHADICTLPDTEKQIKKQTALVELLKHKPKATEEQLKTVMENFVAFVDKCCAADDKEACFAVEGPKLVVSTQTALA
Protocol: The steady-state fluorescence emission spectra of a solution of 0.5–1.0 μM BSA (in HEPES buffer) were recorded between 310 and 500 nm with λexc = 295 nm after additions of the complexes’ solutions directly to the cuvette (optical path of 1.0 cm). The UV–vis spectrum of each sample was used to make corrections and minimize the inner filter and reabsorption interferences.[22] Solutions with the same concentration of complex and no BSA were recorded and used as blank spectra.
Data were analyzed by fitting a second-order equation, which accounts for both static and dynamic quenching [drawing 2] 2 where I0 and I are the fluorescence intensities in the absence and presence of quencher (Q), and KS and KD are the static and dynamic quenching constants, respectively.
The Stern–Volmer equation was used for low quencher concentrations to determine the Stern–Volmer quenching constant (KSV), a measure of the quenching strength [drawing 3] 3

[7] = Overall stability (formation) constants of Zn(II) complexes by UV–vis spectrophotometric titrations; assay type: physicochemical; conditions: I = 0.1 M KCl, t = 25.0 °C; for log β (ZnL2): bis-ligand Zn(II) complex; for log β (ZnL): mono-ligand Zn(II) complex
Protocol: (§3) The UV–vis titrations were performed with a 0.10 M carbonate-free KOH solution using a Metrohm 665 Dosimat buret and an Orion 710A pH-meter equipped with a Metrohm combined electrode (type 6.0234.100). […] The average water ionization constant (pKw) is 13.76 ± 0.05. The path length was 1 cm, and the temperature was 25.0 ± 0.1 °C. An ionic strength of 0.10 M KCl was used to keep the activity coefficients constant. The samples were deoxygenated by bubbling argon through the system for 10 min. Spectrophotometric titrations were carried out using an Agilent Cary 8454 diode array spectrophotometer (Santa Clara, CA) in water on samples containing the ligands at 60 μM, in the pH range from 1.5 to 11.5 in the absence or in the presence of 1, 0.5, or 0.25 equiv of Cu(II) and Zn(II) ions, using 10.00 mL of sample volumes. Proton dissociation constants (Ka) of the ligand precursors, as well as stoichiometry and overall stability constants (β) of the metal complexes, were calculated by the computer program PSEQUAD.[20]

[8] = Proton dissociation constants by UV–vis spectrophotometric titrations; assay type: physicochemical; conditions: water with 0.10 M KCl, I = 0.1 M KCl, t = 25.0 °C
Protocol: as §3

[9] = Overall stability (formation) constants of Cu(II) complexes by UV–vis spectrophotometric titrations; assay type: physicochemical; conditions: I = 0.1 M KCl, t = 25.0 °C; for log β (CuL2): bis-ligand Cu(II) complex; for log β (CuL): mono-ligand Cu(II) complex
Protocol: as §3

melanoma cell line A375 = tested on: melanoma cell line A375; parameters: method as in doi:10.1016/j.phytol.2021.07.008; conditions: A375, MTT method; cited from earlier work
[10] = Stability by 1H NMR in DMSO-d6 or 30% DMSO-d6/H2O; assay type: physicochemical; conditions: 1 mM
Protocol: A Bruker Avance III HD Ascend 500 Plus instrument (Billerica, MA) was used for NMR spectroscopic titrations and time-dependent studies applying a WATERGATE water suppression pulse scheme in the presence of 10% (v/v) D2O/H2O, and the sodium trimethylsilylpropanesulfonate (DSS) standard was added to samples as the internal reference. ^1H NMR titrations were carried out for the ligand precursors in the presence of 0.1 M KCl. For free ligands and complexes’ stability measurements, ^1H NMR spectra were recorded in DMSO-d6 or 30% (v/v) DMSO-d6/H2O.

[11] = quinolinium nitrogen, read-out: pKa (NqH+)
[12] = Homo sapiens, A-375, A375, 48 h incubation

Compound | log D7.4 [1] | Thermodynamic solubility S7.4 [2] [µM] | IC50 ([4]; A375, 48 h incubation) [µM] | stability in aqueous media [5] | logD at 3 h [1] | log β (ZnL2) [7] | log β (ZnL) [7] | pKa ([8]; phenol OH, read-out: pKa (OH)) | pKa [8, 11] | log β (CuL2) [9] | log β (CuL) [9] | IC50 [4, 12] [µM] | IC50 [3] [µM] | Selectivity index (SI) [3] | IC50 ([3]; Homo sapiens) [µM] | further results
[O-]c1cccc2ccc(/C=N/CCCN3CCOCC3)nc12.[O-]c1cccc2ccc(/C=N/CCCN3CCOCC3)nc12.[Zn+2] [Zn(L3)2] | >1.5 | 87 | 9.3 ± 1.1 | suggests hydrolysis; also recorded: significant hydrolysis |  |  |  |  |  |  |  |  | 26.3 ± 0.7 | 2.8 |  | 
[O-]c1cccc2ccc(/C=N/CCN3CCOCC3)nc12.[O-]c1cccc2ccc(/C=N/CCN3CCOCC3)nc12.[Zn+2] [Zn(L2)2] | +0.86 ± 0.09 | 1674 | 10.3 ± 1.6 | did not show signs of decomposition |  |  |  |  |  |  |  |  | 24.4 ± 0.6 | 2.4 |  | percentage of dead and apoptotic cells (A375 cells): 10%
[Cu+2].[O-]c1cccc2ccc(/C=N/CCCN3CCOCC3)nc12.[O-]c1cccc2ccc(/C=N/CCCN3CCOCC3)nc12 [Cu(L3)2] | >1.5 | 1821 | 6.7 ± 0.2 |  |  |  |  |  |  |  |  |  | 8.1 ± 0.2 | 1.2 |  | Stern–Volmer quenching constant KSV ([6]; fit at low quencher concentrations, HEPES pH 7.4): (2.20 ± 0.07) × 10^5 M^–1; % quenching ([6]; molar ratio complex:BSA = 10, λexc = 295 nm): 48%
N.N.[Cl][Pt][Cl] [Cisplatin] |  |  |  |  |  |  |  |  |  |  |  |  |  |  |  | IC50 (melanoma cell line A375): 10.9 ± 1.3 µM
[O-]c1cccc2ccc(/C=N/CCN3CCCCC3)nc12.[O-]c1cccc2ccc(/C=N/CCN3CCCCC3)nc12.[Zn+2] [Zn(L1)2] | >1.5 | 694 | 9.1 ± 1.5 | did not show signs of decomposition |  |  |  |  |  |  |  |  | 22.3 ± 0.7 | 2.5 |  | period the 1H NMR spectra remained unchanged [10]: 8 days

Second part, led by results:

log D7.4 [1] | Thermodynamic solubility S7.4 [2] [µM] | IC50 ([4]; A375, 48 h incubation) [µM] | stability in aqueous media [5] | logD at 3 h [1] | log β (ZnL2) [7] | log β (ZnL) [7] | pKa ([8]; phenol OH, read-out: pKa (OH)) | pKa [8, 11] | log β (CuL2) [9] | log β (CuL) [9] | IC50 [4, 12] [µM] | Compound | IC50 [3] [µM] | Selectivity index (SI) [3] | IC50 ([3]; Homo sapiens) [µM] | further results
 |  |  |  | 0.64 | 14.32 ± 0.02 | 6.86 ± 0.04 | 8.84 ± 0.03 | 2.83 ± 0.03 | 15.77 ± 0.03 | 7.98 ± 0.02 | 15.9 ± 0.1 | Oc1cccc2ccc(/C=N/CCN3CCOCC3)nc12 [L2] |  |  | > 30 | 
 |  |  |  | 0.76 | 13.68 ± 0.04 | 6.87 ± 0.01 | 8.78 ± 0.03 | 2.77 ± 0.03 | 15.57 ± 0.01 | 8.34 ± 0.01 | 25.8 ± 0.3 | Oc1cccc2ccc(/C=N/CCCN3CCOCC3)nc12 [L3] |  |  | > 30 | 
 |  |  |  | 0.63 | 14.42 ± 0.01 | 6.90 ± 0.03 | 8.77 ± 0.03 | 2.8 ± 0.03 | 15.60 ± 0.02 | 8.36 ± 0.01 | 15.2 ± 0.2 | Oc1cccc2ccc(/C=N/CCN3CCCCC3)nc12 [L1] |  |  | > 30 | 
